Data: ChEMBL document CHEMBL2016536, “New triazole derivatives as antifungal agents: synthesis via click reaction, in vitro evaluation and molecular docking studies” (2012)
Converted amounts (≈) assume the structure as drawn.

Experiments:
Type in all cases: functional
Trichophyton rubrum = assay: Antifungal activity against Trichophyton rubrum by microbroth dilution method
Candida albicans [1] = assay: Antifungal activity against Candida albicans Y0109 after 24 hrs by microbroth dilution method; conditions: Y0109, 24 h
Candida tropicalis [2] = assay: Antifungal activity against Candida tropicalis by microbroth dilution method
Aspergillus fumigatus = assay: Antifungal activity against Aspergillus fumigatus by microbroth dilution method
Candida parapsilosis = assay: Antifungal activity against Candida parapsilosis by microbroth dilution method; conditions: Lodderomyces parapsilosis
Cryptococcus neoformans = assay: Antifungal activity against Cryptococcus neoformans after 72 hrs by microbroth dilution method
Kluyveromyces marxianus [3] = assay: Antifungal activity against Candida kefyr by microbroth dilution method
Candida albicans [4] = assay: Antifungal activity against Candida albicans SC5314 after 24 hrs by microbroth dilution method; conditions: SC5314, 24 h
Kluyveromyces marxianus [5] = assay: Ratio of MIC80 for fluconazole to compound for Candida kefyr by microbroth dilution method
Candida tropicalis [6] = assay: Ratio of MIC80 for fluconazole to compound for Candida tropicalis by microbroth dilution method

Row | Structure (SMILES) | MIC80 (Trichophyton rubrum) [µg/mL] | MIC80 (Candida albicans [1]) [µg/mL] | MIC80 (Candida tropicalis [2]) [µg/mL] | MIC80 (Aspergillus fumigatus) [µg/mL] | MIC80 (Candida parapsilosis) [µg/mL] | MIC80 (Cryptococcus neoformans) [µg/mL] | MIC80 (Kluyveromyces marxianus [3]) [µg/mL] | MIC80 (Candida albicans [4]) [µg/mL] | Ratio (Kluyveromyces marxianus [5]) | Ratio (Candida tropicalis [6])
1 | O=[N+]([O-])c1ccccc1Cn1cc(CC(O)(Cn2cncn2)c2ccc(F)cc2F)nn1 (configuration not stated) | 0.25 (≈ 0.566 µM) | 0.0625 (≈ 0.142 µM) | 0.125 (≈ 0.283 µM) | 32 (≈ 72.5 µM) | < 0.25 | 0.5 (≈ 1.13 µM) | 0.0625 (≈ 0.142 µM) | < 0.125 |  | 
2 | OC(Cc1cn(Cc2ccccc2)nn1)(Cn1cncn1)c1ccc(F)cc1F (configuration not stated) | 0.25 (≈ 0.631 µM) | 0.0625 (≈ 0.158 µM) | 0.0625 (≈ 0.158 µM) | 16 (≈ 40.4 µM) | 0.0625 (≈ 0.158 µM) | < 0.25 | < 0.125 | 0.125 (≈ 0.315 µM) |  | 
3 | OC(Cc1cn(Cc2ccccc2Cl)nn1)(Cn1cncn1)c1ccc(F)cc1F (configuration not stated) | 0.25 (≈ 0.58 µM) | 0.0625 (≈ 0.145 µM) | 0.0625 (≈ 0.145 µM) | 16 (≈ 37.1 µM) | 0.0625 (≈ 0.145 µM) | 0.25 (≈ 0.58 µM) | 0.125 (≈ 0.29 µM) | 0.0625 (≈ 0.145 µM) |  | 
4 | C[C@@H]1[C@H](O)[C@@H](C)/C=C/C=C/C=C/C=C/C=C/C=C/C=C/[C@H](O[C@@H]2O[C@H](C)[C@@H](O)[C@H](N)[C@@H]2O)C[C@@H]2O[C@](O)(C[C@@H](O)C[C@@H](O)[C@H](O)CC[C@@H](O)C[C@@H](O)CC(=O)O[C@H]1C)C[C@H](O)[C@H]2C(=O)O [AMPHOTERICIN B] | 4 (≈ 4.33 µM) | 0.25 (≈ 0.271 µM) | 1 (≈ 1.08 µM) | 1 (≈ 1.08 µM) | 0.25 (≈ 0.271 µM) | 1 (≈ 1.08 µM) | 0.25 (≈ 0.271 µM) | 0.25 (≈ 0.271 µM) |  | 
5 | N#Cc1ccc(Cn2cc(CC(O)(Cn3cncn3)c3ccc(F)cc3F)nn2)cc1 (configuration not stated) | 0.25 (≈ 0.593 µM) | 0.0625 (≈ 0.148 µM) | 0.125 (≈ 0.297 µM) | 32 (≈ 75.9 µM) | 0.25 (≈ 0.593 µM) | 0.5 (≈ 1.19 µM) | < 0.125 | 0.125 (≈ 0.297 µM) |  | 
6 | OC(Cc1cn(Cc2ccc(Br)cc2)nn1)(Cn1cncn1)c1ccc(F)cc1F (configuration not stated) | 0.125 (≈ 0.263 µM) | 0.0625 (≈ 0.131 µM) | 0.25 (≈ 0.526 µM) | 8 (≈ 16.8 µM) | 0.125 (≈ 0.263 µM) | 0.25 (≈ 0.526 µM) | 0.0625 (≈ 0.131 µM) | 0.0625 (≈ 0.131 µM) |  | 
7 | N#Cc1cccc(Cn2cc(CC(O)(Cn3cncn3)c3ccc(F)cc3F)nn2)c1 (configuration not stated) | 0.25 (≈ 0.593 µM) | 0.0625 (≈ 0.148 µM) | 0.125 (≈ 0.297 µM) | 32 (≈ 75.9 µM) | 0.25 (≈ 0.593 µM) | 1 (≈ 2.37 µM) | < 0.125 | 0.125 (≈ 0.297 µM) |  | 
8 | OC(Cc1cn(Cc2ccccc2Br)nn1)(Cn1cncn1)c1ccc(F)cc1F (configuration not stated) | 0.25 (≈ 0.526 µM) | 0.0625 (≈ 0.131 µM) | 0.0625 (≈ 0.131 µM) | 4 (≈ 8.42 µM) | 0.0625 (≈ 0.131 µM) | 0.25 (≈ 0.526 µM) | 0.0625 (≈ 0.131 µM) | 0.0625 (≈ 0.131 µM) |  | 
9 | OC(Cc1cn(Cc2ccc(F)c(F)c2)nn1)(Cn1cncn1)c1ccc(F)cc1F (configuration not stated) | 0.25 (≈ 0.578 µM) | 0.125 (≈ 0.289 µM) | 0.125 (≈ 0.289 µM) | 16 (≈ 37 µM) | 0.125 (≈ 0.289 µM) | 1 (≈ 2.31 µM) | 0.25 (≈ 0.578 µM) | 0.25 (≈ 0.578 µM) | 64 | 16
10 | OC(Cn1cncn1)(Cn1cncn1)c1ccc(F)cc1F [FLUCONAZOLE] | 1 (≈ 3.27 µM) | 0.5 (≈ 1.63 µM) | 1 (≈ 3.27 µM) | 64 (≈ 209 µM) | 0.5 (≈ 1.63 µM) | 1 (≈ 3.27 µM) | 4 (≈ 13.1 µM) | 0.5 (≈ 1.63 µM) |  | 
11 | O=[N+]([O-])c1ccc(Cn2cc(CC(O)(Cn3cncn3)c3ccc(F)cc3F)nn2)cc1 (configuration not stated) | 0.25 (≈ 0.566 µM) | 0.0625 (≈ 0.142 µM) | 0.125 (≈ 0.283 µM) | 16 (≈ 36.2 µM) | 0.25 (≈ 0.566 µM) | 0.5 (≈ 1.13 µM) | 0.0625 (≈ 0.142 µM) | < 0.125 |  | 
12 | OC(Cc1cn(Cc2cccc(F)c2)nn1)(Cn1cncn1)c1ccc(F)cc1F (configuration not stated) | 0.25 (≈ 0.603 µM) | 0.0625 (≈ 0.151 µM) | 0.25 (≈ 0.603 µM) | 32 (≈ 77.2 µM) | 0.125 (≈ 0.302 µM) | 0.25 (≈ 0.603 µM) | 0.0625 (≈ 0.151 µM) | < 0.125 |  | 
13 | OC(Cc1cn(Cc2cccc(Cl)c2)nn1)(Cn1cncn1)c1ccc(F)cc1F (configuration not stated) | 0.125 (≈ 0.29 µM) | 0.0625 (≈ 0.145 µM) | 0.25 (≈ 0.58 µM) | 8 (≈ 18.6 µM) | 0.125 (≈ 0.29 µM) | 0.5 (≈ 1.16 µM) | 0.0625 (≈ 0.145 µM) | < 0.125 |  | 
14 | CC(C)(C)c1ccc(Cn2cc(CC(O)(Cn3cncn3)c3ccc(F)cc3F)nn2)cc1 (configuration not stated) | 0.0625 (≈ 0.138 µM) | 0.0625 (≈ 0.138 µM) | 0.0625 (≈ 0.138 µM) | 4 (≈ 8.84 µM) | 0.125 (≈ 0.276 µM) | < 0.125 | 0.0625 (≈ 0.138 µM) | 0.0625 (≈ 0.138 µM) |  | 
15 | COc1ccc(OC)c(Cn2cc(CC(O)(Cn3cncn3)c3ccc(F)cc3F)nn2)c1 (configuration not stated) | 0.0625 (≈ 0.137 µM) | 0.0156 (≈ 0.0342 µM) | 0.125 (≈ 0.274 µM) | 2 (≈ 4.38 µM) | 0.0625 (≈ 0.137 µM) | 0.0625 (≈ 0.137 µM) | 0.0625 (≈ 0.137 µM) | 0.0625 (≈ 0.137 µM) |  | 
